Source: publication PMC2951742 (ChemMedChem, 2010)
Read-outs that look alike come from different tables or passages of the source.

Tests used:
[1] = biological target: human 5-HT2B receptor (Homo sapiens, UniProt P41595); assay: Calcium flux; assay type: cell-based; settings: for 5-HT2B %MAX ± SEM: percent of maximal activation by 5-HT, activation at 10 μM for compounds without EC50 value
[2] = biological target: hERG (Homo sapiens, UniProt Q12809); assay: hERG assay; settings: for hERG inhibition: result in words
[3] = biological target: T1, human 5-HT2C (INI) receptor (Homo sapiens, UniProt P28335); assay: Calcium flux; assay type: cell-based; settings: for 5-HT2C %MAX ± SEM: percent of maximal activation by 5-HT; for Selectivity 2A/2C / Selectivity 2B/2C: ratio of EC50 values
T1 sequence (P28335 33-458): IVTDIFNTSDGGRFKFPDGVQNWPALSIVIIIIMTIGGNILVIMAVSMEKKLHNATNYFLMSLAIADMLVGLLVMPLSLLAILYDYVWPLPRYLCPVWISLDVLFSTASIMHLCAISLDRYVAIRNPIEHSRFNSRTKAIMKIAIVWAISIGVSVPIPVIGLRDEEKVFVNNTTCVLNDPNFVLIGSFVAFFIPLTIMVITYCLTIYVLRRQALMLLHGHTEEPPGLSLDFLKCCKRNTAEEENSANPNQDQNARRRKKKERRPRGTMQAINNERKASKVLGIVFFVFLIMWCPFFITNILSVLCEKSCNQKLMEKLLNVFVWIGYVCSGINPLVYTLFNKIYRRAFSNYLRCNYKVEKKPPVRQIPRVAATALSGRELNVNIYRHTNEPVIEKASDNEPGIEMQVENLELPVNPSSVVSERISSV

[4] = biological target: human 5-HT2A receptor (Homo sapiens, UniProt P28223); assay: Calcium flux; assay type: cell-based; settings: for 5-HT2A EC50 ± SEM: HEK-293, calcium flux; for 5-HT2A %MAX ± SEM: percent of maximal activation by 5-HT, activation at 10 μM for compounds without EC50 value
[5] = Microsomal stability, rat microsomes; assay type: in vitro ADME; settings: 1h assay
[6] = test system: PCP-disrupted PPI in mice; assay: Normalization of PCP-disrupted prepulse inhibition; assay type: in vivo; settings: 6 mg/kg PCP ip
[7] = Microsomal stability, human microsomes; assay type: in vitro ADME; settings: 1h assay
[8] = biological target: CYP2D6 (Homo sapiens, UniProt P10635); assay: Recombinant CYP inhibition test, CYP2D6; assay type: in vitro ADME; settings: at 10 μM
[9] = biological target: CYP3A4 (Homo sapiens, UniProt P08684); assay: Recombinant CYP inhibition test, CYP3A4; assay type: in vitro ADME; settings: at 10 μM
[10] = biological target: CYP2C9 (Homo sapiens, UniProt P11712); assay: Recombinant CYP inhibition test, CYP2C9; assay type: in vitro ADME; settings: at 10 μM
[11] = test system: animals; assay: Adverse side effects in animals; settings: in vivo
[12] = test system: PCP-disrupted PPI in mice; settings: identical PPI testing paradigm, earlier work; cited from earlier work

Chain of human 5-HT2A receptor (P28223 whole entry): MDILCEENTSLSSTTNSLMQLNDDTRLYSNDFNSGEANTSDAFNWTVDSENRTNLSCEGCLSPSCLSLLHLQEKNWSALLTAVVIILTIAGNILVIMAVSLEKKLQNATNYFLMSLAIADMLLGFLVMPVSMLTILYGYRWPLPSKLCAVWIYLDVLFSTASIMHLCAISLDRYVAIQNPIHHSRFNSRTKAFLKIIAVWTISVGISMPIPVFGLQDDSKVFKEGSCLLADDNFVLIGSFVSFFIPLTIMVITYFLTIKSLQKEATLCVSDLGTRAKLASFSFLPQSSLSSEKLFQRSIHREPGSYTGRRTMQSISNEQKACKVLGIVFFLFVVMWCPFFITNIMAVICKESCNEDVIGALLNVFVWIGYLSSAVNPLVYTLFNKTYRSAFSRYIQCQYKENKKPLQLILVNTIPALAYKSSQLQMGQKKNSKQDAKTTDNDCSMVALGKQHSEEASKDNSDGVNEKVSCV
Chain of human 5-HT2B receptor (P41595 whole entry): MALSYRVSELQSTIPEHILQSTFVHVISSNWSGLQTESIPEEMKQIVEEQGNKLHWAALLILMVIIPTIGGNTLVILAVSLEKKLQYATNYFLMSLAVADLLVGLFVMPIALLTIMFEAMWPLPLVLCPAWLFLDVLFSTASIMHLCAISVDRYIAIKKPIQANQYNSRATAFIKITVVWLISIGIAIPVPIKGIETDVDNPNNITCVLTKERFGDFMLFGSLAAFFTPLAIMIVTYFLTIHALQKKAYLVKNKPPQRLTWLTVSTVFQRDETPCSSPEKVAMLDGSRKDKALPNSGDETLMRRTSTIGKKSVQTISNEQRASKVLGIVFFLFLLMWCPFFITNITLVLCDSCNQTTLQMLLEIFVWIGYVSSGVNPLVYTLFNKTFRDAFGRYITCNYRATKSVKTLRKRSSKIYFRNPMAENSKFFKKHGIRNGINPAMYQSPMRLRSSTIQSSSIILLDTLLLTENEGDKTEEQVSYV
Chain of hERG (Q12809 whole entry): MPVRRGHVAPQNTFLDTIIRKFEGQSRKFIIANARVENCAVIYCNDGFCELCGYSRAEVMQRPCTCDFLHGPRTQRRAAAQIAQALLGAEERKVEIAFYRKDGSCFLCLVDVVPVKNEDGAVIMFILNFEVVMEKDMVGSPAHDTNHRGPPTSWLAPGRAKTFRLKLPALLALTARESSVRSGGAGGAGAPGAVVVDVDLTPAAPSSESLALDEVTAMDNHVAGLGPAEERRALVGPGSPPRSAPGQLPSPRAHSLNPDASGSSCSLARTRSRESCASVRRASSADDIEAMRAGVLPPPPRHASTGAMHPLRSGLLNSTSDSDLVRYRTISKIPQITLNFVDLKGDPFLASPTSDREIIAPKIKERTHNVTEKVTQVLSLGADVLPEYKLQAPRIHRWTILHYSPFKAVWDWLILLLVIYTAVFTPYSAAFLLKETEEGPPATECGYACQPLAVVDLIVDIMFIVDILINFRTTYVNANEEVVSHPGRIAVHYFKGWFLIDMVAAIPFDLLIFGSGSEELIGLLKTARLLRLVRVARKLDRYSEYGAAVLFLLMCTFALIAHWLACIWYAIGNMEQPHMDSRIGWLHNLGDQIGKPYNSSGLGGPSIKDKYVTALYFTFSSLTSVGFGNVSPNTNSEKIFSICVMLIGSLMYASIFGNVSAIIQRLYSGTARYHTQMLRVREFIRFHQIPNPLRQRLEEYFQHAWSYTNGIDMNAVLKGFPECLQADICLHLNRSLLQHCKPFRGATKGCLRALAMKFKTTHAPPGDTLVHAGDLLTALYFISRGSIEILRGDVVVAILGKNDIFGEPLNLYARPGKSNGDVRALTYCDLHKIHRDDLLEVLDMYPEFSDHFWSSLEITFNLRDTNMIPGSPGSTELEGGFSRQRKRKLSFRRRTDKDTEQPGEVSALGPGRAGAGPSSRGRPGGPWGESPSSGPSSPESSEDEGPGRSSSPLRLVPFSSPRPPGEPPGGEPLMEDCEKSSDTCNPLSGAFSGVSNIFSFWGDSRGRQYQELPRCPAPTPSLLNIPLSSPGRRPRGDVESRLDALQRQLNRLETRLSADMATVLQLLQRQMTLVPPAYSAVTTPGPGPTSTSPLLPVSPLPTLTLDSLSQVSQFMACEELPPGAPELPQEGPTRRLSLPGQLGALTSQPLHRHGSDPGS
Chain of CYP3A4 (P08684 whole entry): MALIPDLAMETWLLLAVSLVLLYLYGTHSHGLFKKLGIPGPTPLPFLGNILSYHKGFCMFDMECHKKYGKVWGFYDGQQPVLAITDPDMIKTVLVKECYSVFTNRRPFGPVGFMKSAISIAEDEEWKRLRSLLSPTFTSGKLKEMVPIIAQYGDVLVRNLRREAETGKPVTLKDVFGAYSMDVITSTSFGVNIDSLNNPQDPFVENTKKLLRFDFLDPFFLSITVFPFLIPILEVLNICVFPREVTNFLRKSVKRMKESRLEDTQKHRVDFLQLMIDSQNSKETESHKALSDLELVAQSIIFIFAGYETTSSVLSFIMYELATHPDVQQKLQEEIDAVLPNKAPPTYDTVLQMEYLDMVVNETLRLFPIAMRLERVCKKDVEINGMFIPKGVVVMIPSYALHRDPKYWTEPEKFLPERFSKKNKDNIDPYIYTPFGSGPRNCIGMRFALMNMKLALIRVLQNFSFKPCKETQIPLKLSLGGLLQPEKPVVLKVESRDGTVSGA
Chain of CYP2C9 (P11712 whole entry): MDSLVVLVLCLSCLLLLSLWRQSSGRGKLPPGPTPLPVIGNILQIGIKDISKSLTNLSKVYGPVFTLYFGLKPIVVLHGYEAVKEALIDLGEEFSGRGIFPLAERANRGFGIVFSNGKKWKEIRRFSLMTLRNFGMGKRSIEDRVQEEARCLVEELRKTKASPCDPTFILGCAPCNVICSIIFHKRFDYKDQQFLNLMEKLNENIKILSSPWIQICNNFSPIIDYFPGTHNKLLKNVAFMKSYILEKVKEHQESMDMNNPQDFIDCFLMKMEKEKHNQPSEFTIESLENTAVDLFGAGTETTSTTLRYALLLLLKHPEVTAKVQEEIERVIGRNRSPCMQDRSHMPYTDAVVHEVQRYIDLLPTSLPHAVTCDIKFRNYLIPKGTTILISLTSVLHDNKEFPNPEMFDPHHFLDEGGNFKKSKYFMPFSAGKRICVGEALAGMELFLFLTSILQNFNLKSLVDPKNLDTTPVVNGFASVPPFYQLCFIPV
Chain of CYP2D6 (P10635 whole entry): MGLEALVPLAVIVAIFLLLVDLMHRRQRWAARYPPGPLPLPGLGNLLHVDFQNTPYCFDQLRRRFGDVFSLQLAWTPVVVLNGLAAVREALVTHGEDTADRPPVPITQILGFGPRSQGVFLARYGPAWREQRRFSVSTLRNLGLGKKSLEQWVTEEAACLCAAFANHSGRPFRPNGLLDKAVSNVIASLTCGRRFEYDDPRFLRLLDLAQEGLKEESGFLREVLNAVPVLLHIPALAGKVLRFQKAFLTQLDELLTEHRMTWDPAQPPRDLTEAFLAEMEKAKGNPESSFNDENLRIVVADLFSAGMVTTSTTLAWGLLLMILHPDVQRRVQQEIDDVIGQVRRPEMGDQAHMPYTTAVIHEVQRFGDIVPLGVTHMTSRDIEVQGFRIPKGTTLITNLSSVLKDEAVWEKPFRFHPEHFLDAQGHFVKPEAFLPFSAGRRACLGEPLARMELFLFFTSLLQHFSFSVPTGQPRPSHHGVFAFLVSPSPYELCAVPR

With `c1cc2c3c(c1)c1c(n3CCNC2)CCCC1` [5 (WAY 629), WAY 629] the “5-HT2B EC50 ± SEM” value ([1]; first screening campaign (upper table section), HEK-293, calcium flux) was “NA (NA: Emax ≤ 12%)”, the “5-HT2B %MAX ± SEM” value ([1]; first screening campaign) was 6% ± 1.3% and the EC50 ([1]; read-out: 5-HT2B EC50, second screening campaign, value in μM) was over 5 µM. For the same compound, the “5-HT2B %MAX ± SEM” value ([1]; second screening campaign) was 17% ± 2.7%, the hERG inhibition [2] was “no hERG inhibition was detected” and the “5-HT2C %MAX ± SEM” value ([3]; first screening campaign) was 80% ± 1.1%. For the same compound, the “5-HT2C %MAX ± SEM” value ([3]; second screening campaign) was 82% ± 3.5%, the “5-HT2A EC50 ± SEM” value ([4]; first screening campaign (upper table section)) was “NA (NA: Emax ≤ 12%)” and the “5-HT2A %MAX ± SEM” value ([4]; first screening campaign) was 1% ± 0.2%. The “5-HT2A EC50 ± SEM” value ([4]; second screening campaign (lower table section)) was “NA (NA: Emax ≤ 12%)” and the “5-HT2A %MAX ± SEM” value ([4]; second screening campaign) was 7% ± 2.0%.

In the case of `c1cc2c3c(c1)[C@H]1CCC[C@H]1CN3CCNC2` [3 (Vabicaserin), Vabicaserin], the hERG inhibition [2] is reported as “no hERG inhibition was detected”.

For `O=C1Nc2cc(Cl)c(Cl)cc2N2CCNCC12` (centres unmarked) [4 (WAY-161503), WAY-161503], the “5-HT2B %MAX ± SEM” value ([1]; first screening campaign) was 92% ± 1.3%, the “5-HT2B %MAX ± SEM” value ([1]; second screening campaign) was 86% ± 4.7% and the “hERG inhibition, concentration value” ([2]; quantity not given) was 3.6 mM. For the same compound, the hERG inhibition [2] was “very modest inhibition”, the “5-HT2C %MAX ± SEM” value ([3]; first screening campaign) was 97% ± 1.6% and the “Selectivity 2A/2C” value ([3]; first screening campaign) was 70. For the same compound, the “Selectivity 2B/2C” value ([3]; first screening campaign) was 14, the “5-HT2C %MAX ± SEM” value ([3]; second screening campaign) was 94% ± 3.6% and the “Selectivity 2A/2C” value ([3]; second screening campaign) was 40. For the same compound, the “Selectivity 2B/2C” value ([3]; second screening campaign) was 11, the “5-HT2A %MAX ± SEM” value ([4]; first screening campaign) was 80% ± 1.0% and the “5-HT2A %MAX ± SEM” value ([4]; second screening campaign) was 79% ± 4.5%.

For `C[C@H]1CNCCc2ccc(Cl)cc21` [2 (Lorcaserin), Lorcaserin], the “5-HT2B %MAX ± SEM” value ([1]; first screening campaign) was 93% ± 1.2% and the hERG inhibition [2] was “no hERG inhibition was detected”.

In the case of `NCC1CC1c1cc(F)ccc1OCC1CC1` (single isomer, unassigned; (+)) [(+)-12, trans-[2-(2 cyclopropylmethyloxy-5-fluorophenyl)cyclopropyl]-methylamine], the “Microsomal stability, % left” value [5] is reported as 66%, the “Normalization of PCP-disrupted PPI” value ([6]; 5 mg/kg dose level) is reported as “still effective” and the “Normalization of PCP-disrupted PPI” value ([6]; 10 mg/kg) is reported as “able to normalize PCP-disrupted PPI”. For the same compound, the “Normalization of PCP-disrupted PPI (Figure 3)” value ([6]; 30 min pre-treatment, dose not stated in legend) was “effectively normalize PCP-disruption of PPI”, the “Microsomal stability, % left” value [7] was 90.5% and the hERG inhibition [2] was “no hERG inhibition was detected”. It also gave a CYP2D6 inhibition [8] of 27.0%, a CYP3A4 inhibition ([9]; midazolam as substrate) of 21.7% and a CYP3A4 inhibition ([9]; testosterone as substrate) of 25.1%. The CYP2C9 inhibition [10] was 19.6% and the “Adverse side effects in animals” value [11] was “no adverse side effects”.

For `CN1CCN(C2=Nc3cc(Cl)ccc3Nc3ccccc32)CC1` [clozapine], the “Normalization of PCP-disrupted PPI” value [12] is listed as “robustly normalizes PCP-disrupted PPI”.
